Assays:
[1] = target: T1, CDK7 (Homo sapiens, UniProt P50613); assay: Rescue of compound-induced CDK7 degradation in Jurkat cells (ligand and proteasome dependence), immunoblot; format: cell-based; conditions: for rescue of the CDK7 degradation induced by bispecific compound 3 / rescue of the CDK7 degradation induced by bispecific compound 20: Jurkat cells pretreated 2 h (10 μM YKL-5-124, 10 μM DGY-05-180, 0.2 μM Bortezomib, 1 μM MLN4924); for rescue of the CDK7 degradation induced by bispecific compound 3: then 1 μM compound 3 for 4 h; for rescue of the CDK7 degradation induced by bispecific compound 20: then 1 μM compound 20 for 4 h; for dependence of the induced CDK7 degradation: Jurkat cells, 1 μM compound for 4 h after 2 h pretreatment with competitor or pathway inhibitor
T1 construct: endogenous in cells; host or cells: Jurkat cells
T1 sequence (P50613 2-346 limits assumed): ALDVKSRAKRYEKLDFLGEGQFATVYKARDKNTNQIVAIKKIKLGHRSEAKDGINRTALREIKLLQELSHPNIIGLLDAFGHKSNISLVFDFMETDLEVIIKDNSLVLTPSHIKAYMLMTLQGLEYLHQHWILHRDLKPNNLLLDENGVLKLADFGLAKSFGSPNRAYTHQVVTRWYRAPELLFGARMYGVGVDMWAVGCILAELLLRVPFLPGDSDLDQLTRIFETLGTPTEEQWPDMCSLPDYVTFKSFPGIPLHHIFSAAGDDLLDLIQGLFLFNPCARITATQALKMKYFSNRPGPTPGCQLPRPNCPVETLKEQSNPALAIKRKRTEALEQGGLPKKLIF
T1 sequence (P51946 whole entry partner): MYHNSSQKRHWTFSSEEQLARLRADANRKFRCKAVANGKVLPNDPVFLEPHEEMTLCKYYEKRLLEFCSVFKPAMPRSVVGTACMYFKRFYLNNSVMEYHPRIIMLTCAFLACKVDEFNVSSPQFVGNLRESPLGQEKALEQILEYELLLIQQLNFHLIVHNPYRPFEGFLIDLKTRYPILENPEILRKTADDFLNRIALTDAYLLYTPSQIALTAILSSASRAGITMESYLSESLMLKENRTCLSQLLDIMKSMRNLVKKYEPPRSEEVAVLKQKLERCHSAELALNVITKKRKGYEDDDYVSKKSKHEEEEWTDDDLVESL
T1 sequence (P51948 whole entry partner): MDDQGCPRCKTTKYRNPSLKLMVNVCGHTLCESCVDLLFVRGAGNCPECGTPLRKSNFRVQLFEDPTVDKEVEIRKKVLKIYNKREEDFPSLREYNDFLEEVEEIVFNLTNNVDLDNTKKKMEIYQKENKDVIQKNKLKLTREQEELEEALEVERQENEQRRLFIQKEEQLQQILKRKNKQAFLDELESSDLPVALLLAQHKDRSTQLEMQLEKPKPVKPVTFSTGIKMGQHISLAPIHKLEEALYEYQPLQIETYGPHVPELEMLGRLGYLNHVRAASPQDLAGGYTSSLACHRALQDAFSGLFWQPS
Protocol: (§1) Jurkat cells were treated with DMSO or 1 μM of compounds 1-26 for 6 hours. Cells were then lysed in radioimmunoprecipitation assay (RIPA) buffer (Sigma® Life Science) containing protease/phosphatase inhibitor cocktail (Roche). The protein concentrations were measured by bicinchoninic acid assay (BCA) analysis (Pierce™). Equal amounts of protein were resolved by 4-12% Tris-Base gels (Invitrogen™), and then transferred to the immunoblot polyvinylidene difluoride (PVDF) membrane (BioRad), and immunoblotted with primary antibodies against CDK7 (cell signaling) and glyceraldehyde 3-phosphate dehydrogenase (GAPDH) (Cell Signaling Technology®), and then immunoblotted with IRDye®800-labeled goat anti-rabbit immunoglobulin G (IgG) and IRDye®680-labeled goat anti-mouse IgG (LI-COR®) secondary antibodies. The membranes were detected on an Odyssey® CLx system.
Jurkat cells were pretreated with 10 μM YKL-5-124 (the parental compound and known CDK7 inhibitor), 10 μM DGY-05-180 (VHL ligand), 0.2 μM Bortezomib (a proteasome inhibitor available from, e.g., Millipore Sigma, Cat. No. 179324-69-7, Burlington, MA), and 1 μM MLN4924 (a neddylation inhibitor available from, e.g., MedChemExpress (MCE®), Cat. No. HY-70062, Monmouth Junction, NJ), for 2 h, and then treated with 1 μM compound 3 or 20 for 4 h. Cells were lysed and immunoblotted as described in Example 27 with antibodies to CDK7 and GAPDH. The structures of YKL-5-124, DGY-05-180, Bortezomib and MLN4924 are set forth below.

[2] = target: T1, CDK7; assay: CDK7 degradation in Jurkat cells by immunoblot; format: cell-based; conditions: 1 μM compound, 6 hours, vs DMSO
Protocol: as §1

Row | rescue of the CDK7 degradation induced by bispecific compound 3 [1] | rescue of the CDK7 degradation induced by bispecific compound 20 [1] | degradation of CDK7 (immunoblot) [2] | dependence of the induced CDK7 degradation [1] | SMILES
1 | rescued the CDK7 degradation | rescued the CDK7 degradation | – | – | NS(=O)(=O)OC[C@@H]1C[C@@H](n2ccc3c(N[C@H]4CCc5ccccc54)ncnc32)C[C@@H]1O [MLN4924]
2 | – | – | induced the degradation of CDK7 | both ligand- and proteasome-dependent | Cc1ncsc1-c1ccc([C@H](C)NC(=O)[C@@H]2C[C@@H](O)CN2C(=O)[C@@H](NC(=O)CCCNC(=O)c2ccc(C(=O)Nc3n[nH]c4c3CN(C(=O)N[C@H](CN(C)C)c3ccccc3)C4(C)C)cc2)C(C)(C)C)cc1 [Compound 3, N1-(5-(((S)-2-(dimethylamino)-1-phenylethyl)carbamoyl)-6,6-dimethyl-1,4,5,6-tetrahydropyrrolo[3,4-c]pyrazol-3-yl)-N4-(4-(((S)-1-((2S,4R)-4-hydroxy-2-(((S)-1-(4-(4-methylthiazol-5-yl)phenyl)ethyl)carbamoyl)pyrrolidin-1-yl)-3,3-dimethyl-1-oxobutan-2-yl)amino)-4-oxobutyl)terephthalamide]
3 | rescued the CDK7 degradation | rescued the CDK7 degradation | – | – | C=CC(=O)Nc1ccc(C(=O)Nc2n[nH]c3c2CN(C(=O)N[C@H](CN(C)C)c2ccccc2)C3(C)C)cc1 [YKL-5-124]
4 | rescued the CDK7 degradation | rescued the CDK7 degradation | – | – | CC(C)C[C@H](NC(=O)[C@H](Cc1ccccc1)NC(=O)c1cnccn1)B(O)O [Bortezomib]
5 | – | – | induced the degradation of CDK7 | both ligand- and proteasome-dependent | Cc1ncsc1-c1ccc([C@H](C)NC(=O)[C@@H]2C[C@@H](O)CN2C(=O)[C@@H](NC(=O)CCCCNC(=O)c2ccc(C(=O)Nc3n[nH]c4c3CN(C(=O)N[C@H](CN(C)C)c3ccccc3)C4(C)C)cc2)C(C)(C)C)cc1 [Compound 20, N^1-(5-(((S)-2-(dimethylamino)-1-phenylethyl)carbamoyl)-6,6-dimethyl-1,4,5,6-tetrahydropyrrolo[3,4-c]pyrazol-3-yl)-N^4-(5-(((S)-1-((2S,4R)-4-hydroxy-2-(((S)-1-(4-(4-methylthiazol-5-yl)phenyl)ethyl)carbamoyl)pyrrolidin-1-yl)-3,3-dimethyl-1-oxobutan-2-yl)amino)-5-oxopentyl)terephthalamide]

Source: patent US12491251B2, “Degraders of cyclin-dependent kinase 7 (CDK7) and uses thereof” (DANA-FARBER CANCER INSTITUTE, INC., priority 2019, dated 2025)
